# Assay results from ChEMBL document CHEMBL1201862, “PubChem BioAssay data set” (2004).
#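 How tested: cells in 96-well plates exposed to compound for 48 hours at five concentrations. GI50 marks 50% less growth.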 Active and inactive are the calls of the source. Rule as the data show it: active = GI50 up to about 1.1 µM and inactive = higher.
# Key:
# Assay in all cases: NCI anticancer screen, dose series, 48 h
# HOP-62 = test system: HOP-62
# SN12C = test system: SN12C
# A549 = test system: A549
# SK-MEL-28 = test system: SK-MEL-28
# MCF7 = test system: MCF7
# SF-268 = test system: SF-268
# RXF 393 = test system: RXF 393
# HCC 2998 = test system: HCC 2998
# Malme-3M = test system: Malme-3M
# HT-29 = test system: HT-29
# OVCAR-8 = test system: OVCAR-8
# UO-31 = test system: UO-31
# SK-OV-3 = test system: SK-OV-3
# OVCAR-4 = test system: OVCAR-4
# OVCAR-5 = test system: OVCAR-5
# HCT-15 = test system: HCT-15
# HOP-92 = test system: HOP-92
# PC-3 = test system: PC-3
# KM12 = test system: KM12
# OVCAR-3 = test system: OVCAR-3
SMILES,GI50 (HOP-62),GI50 (SN12C),GI50 (A549),GI50 (SK-MEL-28),GI50 (MCF7),GI50 (SF-268),GI50 (RXF 393),GI50 (HCC 2998),GI50 (Malme-3M),GI50 (HT-29),GI50 (OVCAR-8),GI50 (UO-31),GI50 (SK-OV-3),GI50 (OVCAR-4),GI50 (OVCAR-5),GI50 (HCT-15),GI50 (HOP-92),GI50 (PC-3),GI50 (KM12),GI50 (OVCAR-3)
CCC1CCN/C(=N/S(=O)(=O)c2cc(C)c(Cl)cc2S)N1 (stereo not given),24.3 µM (inactive),43.3 µM (inactive),> 100 µM (inactive),52.7 µM (inactive),33.3 µM (inactive),57 µM (inactive),76.2 µM (inactive),43.2 µM (inactive),37.2 µM (inactive),30.1 µM (inactive),19.8 µM (inactive),36.3 µM (inactive),40.5 µM (inactive),24.3 µM (inactive),22.3 µM (inactive),38.5 µM,50.9 µM (inactive),50.2 µM (inactive),,
CCC(C#N)NCc1cccc(CNC(C#N)CC)c1 (stereo not given),,> 100 µM (inactive),> 100 µM (inactive),> 100 µM (inactive),> 100 µM (inactive),> 100 µM (inactive),,> 100 µM (inactive),> 100 µM (inactive),> 100 µM (inactive),> 100 µM (inactive),> 100 µM (inactive),18.4 µM (inactive),> 100 µM (inactive),20 µM (inactive),> 100 µM,> 100 µM (inactive),> 100 µM (inactive),> 100 µM (inactive),> 100 µM (inactive)
CSc1n[n+](C)cc(N)c1N,> 100 µM (inactive),> 100 µM (inactive),> 100 µM (inactive),> 100 µM (inactive),> 100 µM (inactive),,,> 100 µM (inactive),36.1 µM (inactive),> 100 µM (inactive),> 100 µM (inactive),88.9 µM (inactive),> 100 µM (inactive),> 100 µM (inactive),> 100 µM (inactive),> 100 µM,17.8 µM (inactive),> 100 µM (inactive),> 100 µM (inactive),> 100 µM (inactive)
Cc1sc2nc(-c3cccc([N+](=O)[O-])c3)c(/C=N/N=C(N)N)n2c1C,1.72 µM (inactive),1.92 µM (inactive),1.66 µM (inactive),1.67 µM (inactive),1.84 µM (inactive),1.93 µM (inactive),1.66 µM (inactive),1.32 µM (inactive),2.08 µM (inactive),1.62 µM (inactive),1.84 µM (inactive),1.75 µM (inactive),1.8 µM (inactive),,1.65 µM (inactive),1.67 µM,1.46 µM (inactive),1.63 µM (inactive),1.71 µM (inactive),1.82 µM (inactive)
CC(=O)C1(c2ccccc2)CCCN(C)CC1 (stereo not given),> 100 µM (inactive),,,> 100 µM (inactive),> 100 µM (inactive),,,> 100 µM (inactive),> 100 µM (inactive),> 100 µM (inactive),> 100 µM (inactive),> 100 µM (inactive),> 100 µM (inactive),> 100 µM (inactive),> 100 µM (inactive),> 100 µM,> 100 µM (inactive),> 100 µM (inactive),> 100 µM (inactive),> 100 µM (inactive)
CNC(=O)OCC1C2=C(C(=O)C(C)=C(N)C2=O)N2CC3C(N3C)C12OC (stereo not given),14.4 µM (inactive),5.61 µM (inactive),1.83 µM (inactive),47.9 µM (inactive),3.29 µM (inactive),,21.3 µM (inactive),12.4 µM (inactive),2.38 µM (inactive),10.3 µM (inactive),11.4 µM (inactive),,28.9 µM (inactive),15.7 µM (inactive),72.8 µM (inactive),12.1 µM,23.7 µM (inactive),13.9 µM (inactive),,26.5 µM (inactive)
Nc1ncnc2c1ncn2C1OC(CO)CC1O (stereo not given),29.3 µM (inactive),25.6 µM (inactive),75.7 µM (inactive),25.6 µM (inactive),6.08 µM (inactive),53.7 µM (inactive),> 100 µM (inactive),19 µM (inactive),,,16.6 µM (inactive),> 100 µM (inactive),51.9 µM (inactive),> 100 µM (inactive),> 100 µM (inactive),17.6 µM,40.4 µM (inactive),9.27 µM (inactive),22 µM (inactive),39.3 µM (inactive)
COc1ccc2c(c1)/C(=C\c1c(Cl)[nH]c3ccccc13)C(=O)N2,5.75 µM (inactive),7.8 µM (inactive),4.99 µM (inactive),3.39 µM (inactive),3.58 µM (inactive),4 µM (inactive),2.88 µM (inactive),2.68 µM (inactive),5.92 µM (inactive),2.14 µM (inactive),11.1 µM (inactive),6.78 µM (inactive),2.97 µM (inactive),,10.9 µM (inactive),5.14 µM,1.84 µM (inactive),4.9 µM (inactive),3.05 µM (inactive),6 µM (inactive)
CC[N+](CC)(CC)/C(=N\S(=O)(=O)c1ccc(Cl)cc1)[N-]S(=O)(=O)c1cc(C)c(Cl)cc1S,52 µM (inactive),,,> 100 µM (inactive),53.2 µM (inactive),> 100 µM (inactive),78.2 µM (inactive),73.5 µM (inactive),,41.7 µM (inactive),> 100 µM (inactive),> 100 µM (inactive),62.8 µM (inactive),65.5 µM (inactive),58.2 µM (inactive),66.7 µM,24.9 µM (inactive),55.8 µM (inactive),> 100 µM (inactive),83 µM (inactive)
C=CCCCC1CCCNC1=S (stereo not given),> 100 µM (inactive),> 100 µM (inactive),> 100 µM (inactive),> 100 µM (inactive),> 100 µM (inactive),> 100 µM (inactive),> 100 µM (inactive),> 100 µM (inactive),,> 100 µM (inactive),> 100 µM (inactive),> 100 µM (inactive),> 100 µM (inactive),> 100 µM (inactive),> 100 µM (inactive),> 100 µM,> 100 µM (inactive),> 100 µM (inactive),> 100 µM (inactive),> 100 µM (inactive)
O=C(O)c1cc2cc(OCc3ccccc3)ccc2[nH]1,> 100 µM (inactive),> 100 µM (inactive),> 100 µM (inactive),4.01 µM (inactive),88.1 µM (inactive),> 100 µM (inactive),> 100 µM (inactive),> 100 µM (inactive),0.116 µM (active),,> 100 µM (inactive),> 100 µM (inactive),> 100 µM (inactive),,> 100 µM (inactive),> 100 µM,23.6 µM (inactive),> 100 µM (inactive),> 100 µM (inactive),> 100 µM (inactive)
O=C(Nc1ccc2c(c1)oc(=O)c1ccccc12)C(Cl)Cl,62.1 µM (inactive),> 100 µM (inactive),39.1 µM (inactive),> 100 µM (inactive),34.8 µM (inactive),> 100 µM (inactive),> 100 µM (inactive),63.5 µM (inactive),> 100 µM (inactive),28.1 µM (inactive),> 100 µM (inactive),> 100 µM (inactive),,> 10 µM (inactive),> 100 µM (inactive),71.1 µM,> 100 µM (inactive),76.4 µM (inactive),33.2 µM (inactive),28.8 µM (inactive)
COc1cccc(-c2cc(O)c3cccnc3n2)c1,0.104 µM (active),0.406 µM (active),0.102 µM (active),0.234 µM (active),0.488 µM (active),0.611 µM (active),0.229 µM (active),0.251 µM (active),> 100 µM (inactive),0.0543 µM (active),0.235 µM (active),12.3 µM (inactive),,> 40.5 µM (inactive),,0.0873 µM,0.0776 µM (active),0.158 µM (active),0.0581 µM (active),0.0571 µM (active)
COc1ccc(C2=N/C(=C\c3ccccc3)C(=O)O2)cc1,38.7 µM (inactive),,> 100 µM (inactive),> 100 µM (inactive),> 100 µM (inactive),> 100 µM (inactive),> 100 µM (inactive),75.9 µM (inactive),,> 100 µM (inactive),30.8 µM (inactive),,> 100 µM (inactive),37.1 µM (inactive),> 100 µM (inactive),52.1 µM,> 100 µM (inactive),> 100 µM (inactive),36.6 µM (inactive),53.7 µM (inactive)
c1ccc(Nc2nnc(-c3ccccc3Nc3ccccc3-c3nnc(Nc4ccccc4)s3)s2)cc1,> 100 µM (inactive),,,> 100 µM (inactive),> 100 µM (inactive),> 100 µM (inactive),> 100 µM (inactive),> 100 µM (inactive),> 100 µM (inactive),> 100 µM (inactive),> 100 µM (inactive),> 100 µM (inactive),,> 100 µM (inactive),> 100 µM (inactive),> 100 µM,0.703 µM (active),> 100 µM (inactive),> 100 µM (inactive),> 100 µM (inactive)
CC1(C)[C@@H](Cn2nnc3c(N)ncnc32)CC[C@@]1(C)CO,> 100 µM (inactive),> 100 µM (inactive),> 100 µM (inactive),> 100 µM (inactive),> 100 µM (inactive),> 100 µM (inactive),> 100 µM (inactive),12.6 µM (inactive),,,,> 100 µM (inactive),> 100 µM (inactive),> 100 µM (inactive),> 100 µM (inactive),> 100 µM,> 100 µM (inactive),> 100 µM (inactive),> 100 µM (inactive),> 100 µM (inactive)
